Key:
[1] = investigation cohort, 70 patients
[2] = atorvastatin and its metabolites; cited from earlier work

- σ (SD), residual variability (exponential residual error): 0.085
- ωQ (SD), between-subject variability (final PopPK model): 0.715
- ωVc (SD), between-subject variability (final PopPK model): 1.18
- ωVp (SD), between-subject variability (final PopPK model): 0.508
- patients with myalgia at any time during follow-up [1]: 8.6%
SMILES: CC(C)c1c(C(=O)Nc2ccccc2)c(-c2ccccc2)c(-c2ccc(F)cc2)n1CC[C@@H](O)C[C@@H](O)CC(=O)O [atorvastatin]
- fraction of the oral dose excreted in urine [2]: less than 1%
